This passage reports T/C results from PubChem BioAssay AID248 (DTP/NCI, 2004).

In this assay the test system is L1210 leukemia ip in BDF1 mice, survival T/C. The assay can be described thus: NCI In Vivo Anticancer Drug Screen. Data for tumor model L1210 Leukemia (intraperitoneal) in B6D2F1 (BDF1) mice. The note with it: endpoint: mean survival time, higher = longer survival. The procedure, abridged: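 Mice bearing the transplanted tumor received compound or vehicle. Survival of the treated group was divided by that of the vehicle-treated control group to give the ratio.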

The mark [1] stands for this setting: dose: 100.0 mg/kg/injection, schedule: Q01DX009 (ip), vehicle: Klucel (hydroxypropylcellulose) (HPC).
The mark [2] stands for this setting: dose: 50.0 mg/kg/injection, schedule: Q04DX002 (ip), vehicle: saline.
Where [3] appears, read: dose: 100.0 mg/kg/injection, schedule: Q04DX002 (ip), vehicle: saline.
[4] abbreviates: dose: 100.0 mg/kg/injection, schedule: Q01DX001 (ip), vehicle: carboxymethylcellulose (CMC).
[5] abbreviates: dose: 200.0 mg/kg/injection, schedule: Q01DX001 (ip), vehicle: carboxymethylcellulose (CMC).
[6] abbreviates: dose: 400.0 mg/kg/injection, schedule: Q01DX001 (ip), vehicle: carboxymethylcellulose (CMC).
Where [7] appears, read: dose: 50.0 mg/kg/injection, schedule: Q01DX001 (ip), vehicle: saline.
Setting [8] is: dose: 100.0 mg/kg/injection, schedule: Q01DX001 (ip), vehicle: saline.
[9] abbreviates: dose: 200.0 mg/kg/injection, schedule: Q01DX001 (ip), vehicle: saline.
Setting [10] is: dose: 400.0 mg/kg/injection, schedule: Q01DX001 (ip), vehicle: saline.
Where [11] appears, read: dose: 100.0 mg/kg/injection, schedule: Q04DX003 (ip), vehicle: Klucel (hydroxypropylcellulose) (HPC).
Where [12] appears, read: dose: 200.0 mg/kg/injection, schedule: Q04DX003 (ip), vehicle: Klucel (hydroxypropylcellulose) (HPC).
Where [13] appears, read: dose: 400.0 mg/kg/injection, schedule: Q04DX003 (ip), vehicle: Klucel (hydroxypropylcellulose) (HPC).
Setting [14] is: dose: 200.0 mg/kg/injection, schedule: Q04DX002 (ip), vehicle: saline.
Setting [15] is: dose: 100.0 mg/kg/injection, schedule: Q01DX001 (ip), vehicle: Klucel (hydroxypropylcellulose) (HPC).
Setting [16] is: dose: 200.0 mg/kg/injection, schedule: Q01DX001 (ip), vehicle: Klucel (hydroxypropylcellulose) (HPC).
[17] abbreviates: dose: 400.0 mg/kg/injection, schedule: Q01DX001 (ip), vehicle: Klucel (hydroxypropylcellulose) (HPC).
[18] abbreviates: dose: 100.0 mg/kg/injection, schedule: Q01DX009 (ip), vehicle: saline with Tween-80.
The mark [19] stands for this setting: dose: 200.0 mg/kg/injection, schedule: Q01DX009 (ip), vehicle: saline with Tween-80.

Several values for one entry are separate records, joined by “and”; a condition that tells them apart may be missing. Identical values can stand only once. Inconclusive results and toxic doses are left out.

Consider `O=C(O)/C=C/c1nc2ccccc2c(=O)[nH]1`, for which the T/C runs as follows: (dose: 50.0 mg/kg/injection, schedule: Q01DX009 (ip), vehicle: Klucel (hydroxypropylcellulose) (HPC)) 114 % of control; under setting [1], 100 % of control.
On to `CCC[CH2][Sn]1([CH2]CCC)[O]CC[S]1`, for which, for the setting “dose: 5.0 mg/kg/injection, schedule: Q01DX001 (ip), vehicle: saline”, the T/C is 111 % of control.
Take `CC(N)c1cccc2ccccc12` (centres undefined): the T/C reads like this: (dose: 25.0 mg/kg/injection, schedule: Q04DX002 (ip), vehicle: saline) 98 % of control; under setting [2], 94 % of control; under setting [3], 98 % of control.
Turning to `CCCC(CC)C(C(=O)OCC)C1=NC(C)(C)CC(C)O1` (centres undefined), the T/C was 98 % of control (dose: 100.0 mg/kg/injection, schedule: Q01DX009 (ip), vehicle: saline sonified); 104 % of control (dose: 200.0 mg/kg/injection, schedule: Q01DX009 (ip), vehicle: saline sonified); 93 % of control (dose: 400.0 mg/kg/injection, schedule: Q01DX009 (ip), vehicle: saline sonified).
As for `COC1OC(COS(=O)(=O)c2ccc(C)cc2)C(N(C)C(C)=O)C1OS(=O)(=O)c1ccc(C)cc1` (centres undefined), the T/C is, setting by setting: under setting [4], 96 % of control; under setting [5], 91 % of control; under setting [6], 91 % of control.
As for `CCCCc1ccc2nc3cc4ccccc4cc3nc2c1`, the T/C runs as follows: under setting [7], 95 % of control; under setting [8], 98 % of control; under setting [9], 93 % of control; under setting [10], 110 % of control.
Take `Nc1nc(O)c(N2C(=O)c3ccccc3C2=O)c(=O)[nH]1`: the T/C is 93 % of control (dose: 25.0 mg/kg/injection, schedule: Q04DX003 (ip), vehicle: Klucel (hydroxypropylcellulose) (HPC)); 96 % of control (dose: 50.0 mg/kg/injection, schedule: Q04DX003 (ip), vehicle: Klucel (hydroxypropylcellulose) (HPC)); 96 % of control under setting [11].
As for `O=C(CCN1CC1)OCCOC(=O)CCN1CC1`, the T/C is 97 % of control (dose: 7.1 mg/kg/injection, schedule: Q01DX Z (ip), vehicle: methylcellulose (MC)); 121 % of control (dose: 7.2 mg/kg/injection, schedule: Q01DX005 (ip), vehicle: saline); 113 % of control (dose: 10.6 mg/kg/injection, schedule: Q01DX Z (ip), vehicle: methylcellulose (MC)); 109 % of control (dose: 12.5 mg/kg/injection, schedule: Q04DX003 (ip), vehicle: acetone); 113 % of control and 120 % of control (dose: 16.0 mg/kg/injection, schedule: Q01DX Z (ip), vehicle: methylcellulose (MC)); 101 % of control (dose: 16.5 mg/kg/injection, schedule: Q04DX003 (ip), vehicle: acetone). Moreover, the T/C was 110 % of control (dose: 16.5 mg/kg/injection, schedule: Q04DX003 (ip), vehicle: saline); 122 % of control (dose: 22.0 mg/kg/injection, schedule: Q01DX001 (ip), vehicle: saline); 98 % of control and 103 % of control (dose: 24.0 mg/kg/injection, schedule: Q01DX Z (ip), vehicle: methylcellulose (MC)); 150 % of control (dose: 25.0 mg/kg/injection, schedule: Q01DX009 (ip), vehicle: acetone); 103 % of control (dose: 25.0 mg/kg/injection, schedule: Q04DX003 (ip), vehicle: acetone); 160 % of control (dose: 37.5 mg/kg/injection, schedule: Q01DX009 (ip), vehicle: acetone). Also, the T/C (dose: 37.5 mg/kg/injection, schedule: Q04DX003 (ip), vehicle: acetone) is 106 % of control; the T/C (dose: 37.5 mg/kg/injection, schedule: Q04DX003 (ip), vehicle: saline) is 105 % of control; the T/C (dose: 50.0 mg/kg/injection, schedule: Q04DX003 (ip), vehicle: acetone) is 124 % of control; the T/C (dose: 55.0 mg/kg/injection, schedule: Q01DX005 (ip), vehicle: saline) is 155 % of control.
On to `O=S(=O)(CCCc1ccccc1)c1ccccc1`, for which the T/C is 102 % of control (dose: 50.0 mg/kg/injection, schedule: Q01DX001 (ip), vehicle: other); 102 % of control (dose: 100.0 mg/kg/injection, schedule: Q01DX001 (ip), vehicle: other); 98 % of control under setting [11]; 104 % of control (dose: 200.0 mg/kg/injection, schedule: Q01DX001 (ip), vehicle: other); 100 % of control under setting [12]; 116 % of control (dose: 400.0 mg/kg/injection, schedule: Q01DX001 (ip), vehicle: other). The T/C under setting [13] was 102 % of control.
With `CC(=O)NC1CCCCCCC1`, the T/C was 103 % of control (dose: 100.0 mg/kg/injection, schedule: Q01DX005 (ip), vehicle: saline); 108 % of control (dose: 100.0 mg/kg/injection, schedule: Q01DX009 (ip), vehicle: saline); 100 % of control under setting [3]; 109 % of control (dose: 200.0 mg/kg/injection, schedule: Q01DX005 (ip), vehicle: saline); 102 % of control (dose: 200.0 mg/kg/injection, schedule: Q01DX009 (ip), vehicle: saline); 110 % of control under setting [14]. Moreover, the T/C (dose: 400.0 mg/kg/injection, schedule: Q01DX005 (ip), vehicle: saline) was 109 % of control; the T/C (dose: 400.0 mg/kg/injection, schedule: Q01DX009 (ip), vehicle: saline) is 115 % of control; the T/C (dose: 400.0 mg/kg/injection, schedule: Q04DX002 (ip), vehicle: saline) was 100 % of control.
Take `CC(C)(C)C(C(=O)O)C(=O)O`: the T/C under setting [2] was 98 % of control, the T/C under setting [3] was 98 % of control and the T/C under setting [14] is 92 % of control.
Consider `CCCCCCC(=O)CC(C)C`, for which the T/C by setting is: under setting [1], 101 % of control; under setting [11], 97 % of control; (dose: 200.0 mg/kg/injection, schedule: Q01DX009 (ip), vehicle: Klucel (hydroxypropylcellulose) (HPC)) 103 % of control; under setting [12], 102 % of control; (dose: 400.0 mg/kg/injection, schedule: Q01DX009 (ip), vehicle: Klucel (hydroxypropylcellulose) (HPC)) 109 % of control; under setting [13], 107 % of control.
Turning to `ClC(Cl)C(c1ccccc1)c1ccccc1`, the T/C under setting [15] is 100 % of control, the T/C under setting [16] is 97 % of control and the T/C under setting [17] is 92 % of control.
Turning to `O=S(=O)(O)CCS(=O)(=O)O`, the T/C was 97 % of control (dose: 50.0 mg/kg/injection, schedule: Q01DX001 (ip), vehicle: carboxymethylcellulose (CMC)); 100 % of control under setting [4]; 97 % of control under setting [5]; 97 % of control under setting [6].
Take `CC1CN=C(c2ccc(NC(=O)c3ccc(C(=O)Nc4ccc(C5=NCC(C)CN5)cc4)nc3)cc2)NC1` (centres undefined): the T/C (dose: 2.0 mg/kg/injection, schedule: Q01DX001 (ip), vehicle: water) is 97 % of control and 101 % of control; the T/C (dose: 4.0 mg/kg/injection, schedule: Q01DX001 (ip), vehicle: water) was 101 % of control and 106 % of control; the T/C (dose: 4.0 mg/kg/injection, schedule: Q01DX015 (ip), vehicle: water) was 250 % of control and 288 % of control; the T/C (dose: 6.0 mg/kg/injection, schedule: Q01DX001 (ip), vehicle: water) was 106 % of control and 115 % of control.
Regarding `C/C(=C\c1ccccc1)c1ccccc1`, the T/C is, setting by setting: under setting [7], 91 % of control; under setting [8], 97 % of control; under setting [9], 95 % of control; under setting [10], 101 % of control.
For the compound `O=c1[nH][nH]c(=O)c2c1CCCC2`, the T/C is 98 % of control (dose: 50.0 mg/kg/injection, schedule: Q01DX009 (ip), vehicle: saline with Tween-80); 95 % of control under setting [18]; 109 % of control under setting [19].
Take `CC1(C)C=C2OC(=O)CCC2(C)CC1` (centres undefined): the T/C under setting [15] was 106 % of control; the T/C under setting [18] is 109 % of control; the T/C under setting [16] was 106 % of control; the T/C under setting [19] was 112 % of control; the T/C under setting [17] was 96 % of control; the T/C (dose: 400.0 mg/kg/injection, schedule: Q01DX009 (ip), vehicle: saline with Tween-80) is 107 % of control.
